Measurements published in patent publication US8835472B2, “Compounds, pharmaceutical compositions and uses thereof” (Boehringer Ingelheim International GmbH, priority 2010, dated 2014).

Each molecule was assayed against human ACC2 (Homo sapiens (Human), UniProt O00763) (assay: ACC2 assay, spectrophotometric 384 well assay (NADH-linked, coupled lactate dehydrogenase/pyruvate kinase reaction)). Details: hACC2 construct lacking the 128 N-terminal amino acids; 25° C., 340 nm over 15 minutes.
Format: biochemical
Procedure, shortened: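 N-terminally truncated human ACC2 (lacking 128 residues) expressed in insect cells; coupled PK/LDH read-out of ADP as NADH loss at 340 nm, 15 min, 25 °C. Tris pH 7.5 with citrate and KHCO3; 200 μM acetyl-CoA, 500 μM ATP, 1% DMSO.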

human ACC2, sequence (O00763 129-2458): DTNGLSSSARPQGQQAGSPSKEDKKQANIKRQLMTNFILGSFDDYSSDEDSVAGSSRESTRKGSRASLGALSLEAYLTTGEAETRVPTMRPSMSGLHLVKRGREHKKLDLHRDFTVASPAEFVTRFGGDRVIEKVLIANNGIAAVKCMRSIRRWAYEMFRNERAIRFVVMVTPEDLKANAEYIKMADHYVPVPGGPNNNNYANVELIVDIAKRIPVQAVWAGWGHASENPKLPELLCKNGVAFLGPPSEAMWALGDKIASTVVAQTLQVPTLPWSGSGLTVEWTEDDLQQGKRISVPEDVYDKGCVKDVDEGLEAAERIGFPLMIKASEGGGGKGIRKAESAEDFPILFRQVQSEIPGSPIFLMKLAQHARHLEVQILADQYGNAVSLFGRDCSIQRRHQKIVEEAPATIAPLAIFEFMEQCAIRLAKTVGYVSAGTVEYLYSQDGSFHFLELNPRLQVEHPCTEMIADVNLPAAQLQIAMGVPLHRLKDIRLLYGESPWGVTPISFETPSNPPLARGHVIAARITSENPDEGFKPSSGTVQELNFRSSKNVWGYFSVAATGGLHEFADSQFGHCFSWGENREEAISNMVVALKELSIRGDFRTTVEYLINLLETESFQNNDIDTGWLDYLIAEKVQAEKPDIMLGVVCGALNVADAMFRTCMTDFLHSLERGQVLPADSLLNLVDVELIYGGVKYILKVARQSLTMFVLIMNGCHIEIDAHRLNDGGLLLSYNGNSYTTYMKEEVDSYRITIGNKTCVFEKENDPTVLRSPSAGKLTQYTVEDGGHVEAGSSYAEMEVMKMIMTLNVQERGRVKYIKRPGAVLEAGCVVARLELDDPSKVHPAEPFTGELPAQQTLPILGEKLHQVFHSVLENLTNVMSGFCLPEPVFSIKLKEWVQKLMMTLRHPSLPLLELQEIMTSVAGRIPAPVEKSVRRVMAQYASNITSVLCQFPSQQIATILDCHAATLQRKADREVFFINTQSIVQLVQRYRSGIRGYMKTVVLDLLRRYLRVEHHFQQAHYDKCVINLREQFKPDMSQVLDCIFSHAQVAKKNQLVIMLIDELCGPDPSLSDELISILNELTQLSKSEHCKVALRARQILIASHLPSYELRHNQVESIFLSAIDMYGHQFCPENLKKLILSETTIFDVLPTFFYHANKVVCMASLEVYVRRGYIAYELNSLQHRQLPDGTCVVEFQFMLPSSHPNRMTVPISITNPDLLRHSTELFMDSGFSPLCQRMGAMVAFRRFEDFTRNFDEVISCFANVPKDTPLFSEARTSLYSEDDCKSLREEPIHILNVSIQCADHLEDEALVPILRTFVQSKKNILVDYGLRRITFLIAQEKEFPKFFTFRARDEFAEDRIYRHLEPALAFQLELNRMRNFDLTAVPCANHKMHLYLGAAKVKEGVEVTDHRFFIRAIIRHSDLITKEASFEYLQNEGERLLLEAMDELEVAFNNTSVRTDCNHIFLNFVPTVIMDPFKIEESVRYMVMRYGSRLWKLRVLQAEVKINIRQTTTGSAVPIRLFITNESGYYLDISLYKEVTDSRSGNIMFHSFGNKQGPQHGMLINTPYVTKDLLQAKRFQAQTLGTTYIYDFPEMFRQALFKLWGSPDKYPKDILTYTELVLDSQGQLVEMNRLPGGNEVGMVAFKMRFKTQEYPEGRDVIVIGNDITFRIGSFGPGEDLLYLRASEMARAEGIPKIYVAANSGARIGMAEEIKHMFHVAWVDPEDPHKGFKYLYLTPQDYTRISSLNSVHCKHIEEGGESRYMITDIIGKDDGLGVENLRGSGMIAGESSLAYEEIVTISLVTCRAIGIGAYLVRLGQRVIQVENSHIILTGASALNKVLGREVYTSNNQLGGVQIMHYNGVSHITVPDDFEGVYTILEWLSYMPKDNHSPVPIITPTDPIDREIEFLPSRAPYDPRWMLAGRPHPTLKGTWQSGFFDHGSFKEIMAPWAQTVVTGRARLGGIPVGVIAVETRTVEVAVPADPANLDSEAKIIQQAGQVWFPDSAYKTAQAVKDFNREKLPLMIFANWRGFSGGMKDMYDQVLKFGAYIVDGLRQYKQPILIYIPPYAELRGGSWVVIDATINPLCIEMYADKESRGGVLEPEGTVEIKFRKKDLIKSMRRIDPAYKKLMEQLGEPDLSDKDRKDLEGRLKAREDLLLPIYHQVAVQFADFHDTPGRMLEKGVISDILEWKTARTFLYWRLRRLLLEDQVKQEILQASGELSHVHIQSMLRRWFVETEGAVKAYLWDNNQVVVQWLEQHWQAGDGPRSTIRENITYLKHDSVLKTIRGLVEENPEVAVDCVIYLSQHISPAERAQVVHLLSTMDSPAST

IC50 | SMILES
130 nM | CC(=O)NC(C)Cc1ccc(C#Cc2cnc(N3CC4CCCC4C3)nc2)cc1 (stereo not shown) [Example 13.18]
670 nM | CC(=O)NC(C)Cc1ccc(C#Cc2cnc(NC3CCOC3)nc2)cc1 (stereo not shown) [Example 13.19]
120 nM | CC(Cc1ccc(C#Cc2cnc(NC3CCC3)nc2)cc1)NC(=O)N(C)C (stereo not shown) [Example 13.27]
360 nM | COC(=O)NC(C)Cc1ccc(C#Cc2cnc(N3CC4CCCC4C3)nc2)cc1 (stereo not shown) [Example 13.30]
500 nM | COC(=O)NC(C)Cc1ccc(C#Cc2cnc(NC3CCC3)nc2)cc1 (stereo not shown) [Example 13.31]
290 nM | COC(=O)NC(C)Cc1ccc(C#Cc2cnc(NC3CCCC3)nc2)cc1 (stereo not shown) [Example 13.35]
1600 nM | COC(=O)NC(C)Cc1ccc(C#Cc2cnc(NC3CC3)nc2)cc1 (stereo not shown) [Example 13.36]
2600 nM | CC(Cc1ccc(C#Cc2cnc(NCc3ccncc3)nc2)cc1)NC(=O)C1CC1 (stereo not shown) [Example 13.37]
2400 nM | CCNc1ncc(C#Cc2ccc(CC(C)NC(=O)OC)cc2)cn1 (stereo not shown) [Example 13.41]
580 nM | CC(Cc1ccc(C#Cc2cnc(N3CC4CCCC4C3)nc2)cc1)NC(=O)C1CC1 (stereo not shown) [Example 13.43]
320 nM | CC(Cc1ccc(C#Cc2cnc(NC3CCC3)nc2)cc1)NC(=O)C1CC1 (stereo not shown) [Example 13.44]
910 nM | CC(Cc1ccc(C#Cc2cnc(N3CCCCC3)nc2)cc1)NC(=O)C1CC1 (stereo not shown) [Example 13.45]
2700 nM | CC(Cc1ccc(C#Cc2cnc(NCc3cccnc3)nc2)cc1)NC(=O)C1CC1 (stereo not shown) [Example 13.46]
600 nM | CC(Cc1ccc(C#Cc2cnc(NC3CCCC3)nc2)cc1)NC(=O)C1CC1 (stereo not shown) [Example 13.47]
1300 nM | CC(Cc1ccc(C#Cc2cnc(NC3CC3)nc2)cc1)NC(=O)C1CC1 (stereo not shown) [Example 13.48]
2600 nM | CC(C)Nc1ncc(C#Cc2ccc(CC(C)NC(=O)C3CC3)cc2)cn1 (stereo not shown) [Example 13.49]
1500 nM | CCC(C)Nc1ncc(C#Cc2ccc(CC(C)NC(=O)C3CC3)cc2)cn1 (stereo not shown) [Example 13.50]
2200 nM | CC(Cc1ccc(C#Cc2cnc(N3CCC3)nc2)cc1)NC(=O)C1CC1 (stereo not shown) [Example 13.51]
5200 nM | CCNc1ncc(C#Cc2ccc(CC(C)NC(=O)C3CC3)cc2)cn1 (stereo not shown) [Example 13.52]
5200 nM | CC(Cc1ccc(C#Cc2cnc(NCCF)nc2)cc1)NC(=O)C1CC1 (stereo not shown) [Example 13.53]

IC50 | SMILES
200 nM | CC(Cc1ccc(C#Cc2cnc(NCc3ccccc3)nc2)cc1)NC(=O)C1CC1 (stereo not shown) [Example 13.54]
250 nM | CNc1ncc(C#Cc2ccc(CC(C)NC(C)=O)cc2)cn1 (stereo not shown) [Example 13.60]
330 nM | CC(=O)NC(C)Cc1ccc(C#Cc2cnc(N[C@H]3CCc4ccccc43)nc2)cc1 (stereo partly shown) [Example 13.62]
200 nM | CC(=O)NC(C)Cc1ccc(C#Cc2cnc(N[C@@H]3CCc4ccccc43)nc2)cc1 (stereo partly shown) [Example 13.63]
1600 nM | CC(=O)NC(C)Cc1ccc(C#Cc2cnc(NCCF)nc2)cc1 (stereo not shown) [Example 13.65]
150 nM | CC(=O)NC(C)Cc1ccc(C#Cc2cnc(NC(C)C3CC3)nc2)cc1 (stereo not shown) [Example 13.66]
660 nM | CC(=O)NC(C)Cc1ccc(C#Cc2cnc(NCC3CC3(C)C)nc2)cc1 (stereo not shown) [Example 13.67]
600 nM | CC(=O)NC(C)Cc1ccc(C#Cc2cnc(NCC3CCCC3)nc2)cc1 (stereo not shown) [Example 13.76]
130 nM | CC(=O)NC(C)Cc1ccc(C#Cc2cnc(NC3CC3)nc2)cc1 (stereo not shown) [Example 13.78]
3100 nM | C[C@H](NC(=O)C1CC1)c1ccc(C#Cc2cnc(NC3CCC3)nc2)cc1 [Example 13.88]
1000 nM | CC(=O)N[C@@H](C)c1ccc(C#Cc2cnc(NC3CCC3)nc2)cc1 [Example 13.89]
960 nM | CC(=O)N[C@@H](C)c1ccc(C#Cc2cnc(NC3CC3)nc2)cc1 [Example 13.90]
2900 nM | C[C@H](NC(=O)C1CC1)c1ccc(C#Cc2cnc(NC3CC3)nc2)cc1 [Example 13.91]
7300 nM | CC(=O)N[C@@H](C)c1ccc(C#Cc2cnc(NCc3ccccc3)nc2)cc1 [Example 13.92]
270 nM | CC(=O)N[C@@H](C)c1ccc(C#Cc2cnc(N3CC4CCCC4C3)nc2)cc1 (stereo partly shown) [Example 13.93]
3600 nM | CC(=O)N[C@@H](C)c1ccc(C#Cc2cnc(NCCC(F)(F)F)nc2)cc1 [Example 13.94]
2800 nM | CCNc1ncc(C#Cc2ccc([C@H](C)NC(C)=O)cc2)cn1 [Example 13.95]
5900 nM | CCOc1ccc(C#Cc2ccc(C(C)NC(C)=O)cc2)cn1 (stereo not shown) [Example 14.2]
70 nM | CC(=O)N[C@@H](C)c1ccc(C#Cc2ccc(OC3CCC3)cc2)cc1 [Example 14.7]

The next lines start with the molecule.

SMILES | IC50
CC(=O)NC(C)Cc1ccc(C#Cc2cnc(NCC(C)C)nc2)cc1 (stereo not shown) [Example 13.20] | 260 nM
CCC(C)N(C)c1ncc(C#Cc2ccc(CC(C)NC(C)=O)cc2)cn1 (stereo not shown) [Example 13.21] | 210 nM
CC(=O)NC(C)Cc1ccc(C#Cc2cnc(N3CCOCC3)nc2)cc1 (stereo not shown) [Example 13.22] | 730 nM
CCN(CC)c1ncc(C#Cc2ccc(CC(C)NC(C)=O)cc2)cn1 (stereo not shown) [Example 13.23] | 1200 nM
CC(C)Nc1ncc(C#Cc2ccc(CC(C)NC(=O)N(C)C)cc2)cn1 (stereo not shown) [Example 13.24] | 200 nM
CCC(C)Nc1ncc(C#Cc2ccc(CC(C)NC(=O)N(C)C)cc2)cn1 (stereo not shown) [Example 13.25] | 220 nM
CCNc1ncc(C#Cc2ccc(CC(C)NC(=O)N(C)C)cc2)cn1 (stereo not shown) [Example 13.26] | 200 nM
COC(=O)NC(C)Cc1ccc(C#Cc2cnc(NCc3ccncc3)nc2)cc1 (stereo not shown) [Example 13.28] | 3400 nM
COC(=O)NC(C)Cc1ccc(C#Cc2cnc(N3CCC4(CC4)C3)nc2)cc1 (stereo not shown) [Example 13.29] | 610 nM
COC(=O)NC(C)Cc1ccc(C#Cc2cnc(N3CCCCC3)nc2)cc1 (stereo not shown) [Example 13.32] | 410 nM
COC(=O)NC(C)Cc1ccc(C#Cc2cnc(NCc3cccnc3)nc2)cc1 (stereo not shown) [Example 13.33] | 1800 nM
COC(=O)NC(C)Cc1ccc(C#Cc2cnc(N3CCCC3)nc2)cc1 (stereo not shown) [Example 13.34] | 4700 nM
COC(=O)NC(C)Cc1ccc(C#Cc2cnc(NC(C)C)nc2)cc1 (stereo not shown) [Example 13.38] | 690 nM
CCC(C)Nc1ncc(C#Cc2ccc(CC(C)NC(=O)OC)cc2)cn1 (stereo not shown) [Example 13.39] | 640 nM
COC(=O)NC(C)Cc1ccc(C#Cc2cnc(N3CCC3)nc2)cc1 (stereo not shown) [Example 13.40] | 2200 nM
COC(=O)NC(C)Cc1ccc(C#Cc2cnc(NCCF)nc2)cc1 (stereo not shown) [Example 13.42] | 4500 nM
CC(=O)NC(C)Cc1ccc(C#Cc2cnc(NCc3ccccc3C)nc2)cc1 (stereo not shown) [Example 13.55] | 130 nM
CC(=O)NC(C)Cc1ccc(C#Cc2cnc(NCc3cccc(C)c3)nc2)cc1 (stereo not shown) [Example 13.56] | 970 nM
CC(=O)NC(C)Cc1ccc(C#Cc2cnc(N3CCC(C)(C)CC3)nc2)cc1 (stereo not shown) [Example 13.57] | 220 nM
CC(=O)NC(C)Cc1ccc(C#Cc2cnc(N(C)C)nc2)cc1 (stereo not shown) [Example 13.58] | 1200 nM
CC(=O)NC(C)Cc1ccc(C#Cc2cnc(NCC(F)(F)F)nc2)cc1 (stereo not shown) [Example 13.59] | 360 nM
CC(=O)NC(C)Cc1ccc(C#Cc2cnc(NCc3cnn(C)c3)nc2)cc1 (stereo not shown) [Example 13.61] | 3800 nM
CC(=O)NC(C)Cc1ccc(C#Cc2cnc(N3Cc4ccccc4C3)nc2)cc1 (stereo not shown) [Example 13.64] | 800 nM

SMILES | IC50
CC(=O)NC(C)Cc1ccc(C#Cc2cnc(N3CCC(C)(C)C3)nc2)cc1 (stereo not shown) [Example 13.68] | 230 nM
CC(=O)NC(C)Cc1ccc(C#Cc2cnc(NCc3csc(C)n3)nc2)cc1 (stereo not shown) [Example 13.69] | 5000 nM
CC(=O)NC(C)Cc1ccc(C#Cc2cnc(NCc3ncccn3)nc2)cc1 (stereo not shown) [Example 13.70] | 6800 nM
CC(=O)NC(C)Cc1ccc(C#Cc2cnc(N3CCC4(CCC4)C3)nc2)cc1 (stereo not shown) [Example 13.71] | 210 nM
CC(=O)NC(C)Cc1ccc(C#Cc2cnc(N3CCC4(CC4)C3)nc2)cc1 (stereo not shown) [Example 13.72] | 190 nM
CC(=O)NC(C)Cc1ccc(C#Cc2cnc(N3CCC4(CCCC4)C3)nc2)cc1 (stereo not shown) [Example 13.73] | 280 nM
COC1(C)CCN(c2ncc(C#Cc3ccc(CC(C)NC(C)=O)cc3)cn2)CC1 (stereo not shown) [Example 13.74] | 1700 nM
CC(=O)NC(C)Cc1ccc(C#Cc2cnc(NCCC(F)(F)F)nc2)cc1 (stereo not shown) [Example 13.75] | 170 nM
CC(=O)NC(C)Cc1ccc(C#Cc2cnc(N3CCCC3)nc2)cc1 (stereo not shown) [Example 13.77] | 220 nM
CC(=O)NC(C)Cc1ccc(C#Cc2cnc(NCc3ccc(C)cc3)nc2)cc1 (stereo not shown) [Example 13.79] | 110 nM
COc1ccccc1CNc1ncc(C#Cc2ccc(CC(C)NC(C)=O)cc2)cn1 (stereo not shown) [Example 13.80] | 480 nM
CCC(CC)Nc1ncc(C#Cc2ccc(CC(C)NC(C)=O)cc2)cn1 (stereo not shown) [Example 13.81] | 330 nM
CC(=O)NC(C)Cc1ccc(C#Cc2cnc(NCc3ccncc3)nc2)cc1 (stereo not shown) [Example 13.82] | 1200 nM
CC(=O)NC(C)Cc1ccc(C#Cc2cnc(NCCC(C)(C)C)nc2)cc1 (stereo not shown) [Example 13.83] | 190 nM
CCC(C)CNc1ncc(C#Cc2ccc(CC(C)NC(C)=O)cc2)cn1 (stereo not shown) [Example 13.84] | 1000 nM
C=C1CCN(c2ncc(C#Cc3ccc(CC(C)NC(C)=O)cc3)cn2)CC1 (stereo not shown) [Example 13.85] | 80 nM
COc1ccc(CNc2ncc(C#Cc3ccc(CC(C)NC(C)=O)cc3)cn2)cc1 (stereo not shown) [Example 13.86] | 120 nM
CC(=O)NC(C)Cc1ccc(C#Cc2cnc(NCCc3ccccc3)nc2)cc1 (stereo not shown) [Example 13.87] | 1000 nM
CSc1nccc(C#Cc2ccc(CC(C)NC(C)=O)cc2)n1 (stereo not shown) [Example 14.1, N-{1-Methyl-2-[4-(2-methylsulfanyl-pyrimidin-4-ylethynyl)-phenyl]-ethyl}acetamide] | 1200 nM
CCCOc1cc(C#Cc2ccc(C(C)NC(C)=O)cc2)ccn1 (stereo not shown) [Example 14.3] | 450 nM
CCOc1cc(C#Cc2ccc(C(C)NC(C)=O)cc2)ncn1 (stereo not shown) [Example 14.4] | 1500 nM
CCCn1ccc(C#Cc2ccc(CC(C)NC(C)=O)cc2)cc1=O (stereo not shown) [Example 14.5] | 4100 nM
CC(=O)NC(C)Cc1ccc(C#Cc2ccc(OC3CCC3)cc2)cc1 (stereo not shown) [Example 14.6] | 120 nM
